# “Also recorded” adds a separate entry of the source.
# Tests used:
# [1] = molecular target: biotinylated apo hLRH-1 LBD (Homo sapiens, UniProt O00482); experiment: Surface plasmon resonance binding assay; conditions: SPR, 25° C., titration from 300 μM, 1:1 binding model; listed as PME8
# Method: Surface Plasmon Resonance Assays. Data were collected on a BiaCore T100 instrument. The biotin CAPture kit (GE Healthcare Life Science) was used as directed for chip preparation and immobilization of protein. In brief, the CAP chip was first conditioned with 3×1 min injec-tions of the provided regeneration solution (6 M Guanidine HCL, 0.25 M NaOH). CAP reagent was then captured on flow cells 1 and 2 to a final density of ˜2500 response units using capture buffer (25 mM HEPES, pH 7.4, 150 mM NaCl). Avi-tagged LRH-1 was then directly injected exclusively on to flow cell 2 achieving a final density of ˜1000 response units (capture buffer). […] A titration series for each fragment was generated as a 0.6× dilution series starting from 300 μM. All samples were made to match the running buffer used in the experiment as closely as possible (capture buffer+3% DMSO, +0.05% Tween-20, 250 μM TCEP). Data was collected at 25° C. with a flow rate of 30 μL/min. Data processing included referencing to both the reference flow cell as well as a buffer injection. Equilibrium binding constants were determined by nonlinear regression analysis utilizing a simple 1:1 binding model. Steady state values used to generate dose-responses curve correspond to the response units achieved 20 seconds after injection.
# [2] = molecular target: T1, hLRH-1 (Homo sapiens, UniProt O00482); experiment: RT-qPCR of hLRH-1 target gene CYP24A1 in HepG2 / HepG2-hLRH-1 cells; type: cell-based
# T1 construct: expressed in transfected cells; host or cells: TET-On 3G HepG2 cells; Dox-inducible pTRE 3G vector (Clontech)
# T1 sequence (O00482 whole entry): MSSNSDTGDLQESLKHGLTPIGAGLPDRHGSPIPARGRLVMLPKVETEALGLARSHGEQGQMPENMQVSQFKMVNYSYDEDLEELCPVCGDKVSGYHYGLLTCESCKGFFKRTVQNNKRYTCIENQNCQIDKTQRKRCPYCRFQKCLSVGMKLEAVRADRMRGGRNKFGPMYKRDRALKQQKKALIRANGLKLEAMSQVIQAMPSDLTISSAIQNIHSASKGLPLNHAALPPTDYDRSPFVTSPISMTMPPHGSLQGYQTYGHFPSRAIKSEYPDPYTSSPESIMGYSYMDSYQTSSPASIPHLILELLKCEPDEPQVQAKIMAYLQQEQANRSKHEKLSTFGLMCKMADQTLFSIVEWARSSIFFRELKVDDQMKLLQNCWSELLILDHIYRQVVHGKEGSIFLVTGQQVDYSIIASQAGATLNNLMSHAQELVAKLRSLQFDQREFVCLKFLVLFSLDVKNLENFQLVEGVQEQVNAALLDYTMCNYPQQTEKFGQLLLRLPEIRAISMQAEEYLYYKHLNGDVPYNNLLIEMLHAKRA
# [3] = molecular target: T2, F342W/I416W hLRH-1 (Homo sapiens, UniProt O00482, F342W/I416W); experiment: RT-qPCR of CYP24A1 in HepG2 cells stably expressing the hLRH-1 pocket mutant; type: cell-based; conditions: 10 μM, 16 h, low levels of hLRH-1; listed as PME8
# T2 construct: expressed in transfected cells; host or cells: TET-On 3G HepG2 cells; Dox-inducible pTRE 3G vector (Clontech)
# T2 sequence (O00482 whole entry F342W/I416W): as the sequence (O00482 whole entry) above, with F342W, I416W counted along it
# Method: Cell lines and Quantitative Real-time Polymerase Chain Reaction (RT-qPCR) Assay. […] Induction of low or high levels of hLRH-1 was achieved by addition of DMSO or 500 ng/ml Dox, respectively.
# For RT-qPCR assay, cells (5×10^5) were plated on 24-well plates in 0.5 mL of media. The following day, fresh media was applied with compound or DMSO control. After an overnight treatment or indicated period of time, cells were washed with ice-cold 1×PBS and total RNA was isolated by Trizol (Life Technologies). DNase-treated total RNA was used to generate cDNA using High-Capacity cDNA Reverse Transcription kits (Life Technologies). RT-qPCR was performed with SYBR (Biotool) and data analyzed essentially as described [19].
# [4] = system: TBP; experiment: RT-qPCR of housekeeping gene TBP in HepG2-hLRH-1 cells; type: cell-based, human; conditions: high hLRH-1 (+Dox), 16 h, SR1848 10 μM
# Method: FIG. 9. Effects of select compounds targeting hLRH-1 compared to PME8. Agonists and antagonists were tested in HepG2-hLRH-1 cells expressing high levels (+Dox) of hLRH-1; activating compounds were added for 16 h relative to the DMSO control (black bars) at the following concentrations: RJW100 (10 μM), DLPC (20 μM), PME8 (10 μM) (bolded, this study) as well as the two putative antagonist/repressors, SR1848 (10 μM) and Cpd3 (10 μM); relative levels of the hLRH-1 target, CYP24A1 (left set of bars) and the housekeeping gene, TBP (right set of bars) are shown with all values normalized to GAPDH. Error bars represents SEM and P values=****<0.0001.
# Finally, to ask how PME8 and PME9 compare to other published compounds, we directly compared the activity of all compounds with respect to the ability to activate or repress CYP24A1 expression in HepG2-hLRH-1 cells. For this experiment, assays were carried out under high levels of hLRH-1 (+Dox) to maximize our ability to see any repressive effects of compounds and the ligand concentrations used were based on published effective doses. […] Of the two published antagonist/repressors, only SR1848 decreased CYP24A1 levels. […]
# For RT-qPCR assay, cells (5×10^5) were plated on 24-well plates in 0.5 mL of media. […] RT-qPCR was performed with SYBR (Biotool) and data analyzed essentially as described. […]
# Chain of biotinylated apo hLRH-1 LBD (O00482 300-539 limits assumed): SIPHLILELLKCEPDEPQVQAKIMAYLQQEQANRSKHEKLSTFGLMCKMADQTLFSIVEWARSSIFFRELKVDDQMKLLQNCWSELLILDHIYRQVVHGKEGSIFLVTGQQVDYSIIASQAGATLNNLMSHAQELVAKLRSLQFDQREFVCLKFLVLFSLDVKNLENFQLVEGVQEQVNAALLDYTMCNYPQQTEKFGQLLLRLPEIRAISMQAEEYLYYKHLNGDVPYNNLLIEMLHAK
SMILES,binding to the hLRH-1 LBD [1],"CYP24A1 expression after siRNA-mediated knockdown of hLRH-1 (dependence on hLRH-1) ([2]; 10 μM, siLRH-1 vs siControl, HepG2-hLRH-1 cells, low hLRH-1 (−Dox), listed as PME8)",treatment time of maximal activity (CYP24A1 levels) ([2]; HepG2-hLRH-1 cells) [h],"time and dose dependence of CYP24A1 induction ([2]; HepG2-hLRH-1 cells, 3-24 h at 10 μM, increasing concentrations for 16 h, −Dox or +Dox, listed as PME8)",activity (CYP24A1 transcripts) in cells expressing the pocket mutant versus wild type hLRH-1 [3],"CYP24A1 expression, comparison of published compounds ([2]; high hLRH-1 (+Dox), 16 h, RJW100 10 μM, DLPC 20 μM, SR1848 10 μM)",expression of the housekeeping gene TBP [4]
"CCCNC(=O)c1cc(C(C)(C)C)cc(C(C)(C)C)c1O [Compound 8, 3,5-di-tert-butyl-2-hydroxy-N-propylbenzamide]",direct binding; also recorded: bind directly,precipitous drop in CYP24A1 expression; also recorded: Depends on hLRH-1,16,time-dependent (FIG. 7A) and dose-dependent,decreased; also recorded: depends on an intact hLRH-1 ligand binding pocket,–,–
"O=c1cc(N2CCN(c3cccc(Cl)c3)CC2)[nH]c(=O)n1C1CCCCC1 [SR1848, reference compound]",–,–,–,–,–,decreased,substantial repression

# — patent publication US10980755B2, “LRH-1 modulators” (THE REGENTS OF THE UNIVERSITY OF CALIFORNIA, priority 2015, dated 2021)
